Entries after “also recorded” stand apart in the source; their conditions may differ.
Tests used:
larval zebrafish [1] = assay: Larval zebrafish movement activity during a battery of light and acoustic stimuli
Source text: Stimuli applied over time are indicated under the heatmaps. Colors indicate bright LED light of respective colors, black traces represent the waveforms of acoustic stimuli, and gray vertical lines indicate physical tapping as secondary acoustic stimuli.
Response is […] proportional to classification accuracy; 0-20% indicates no ability and 100% indicates perfect classification. […] The solid line denotes the median and the shading denotes a 95th percentile confidence interval calculated by bootstrap. N=8 wells/condition (64 animals/condition).

5-HT1A = biological target: T1, 5-HT1A (Homo sapiens, UniProt P08908); assay: 5-HT1A functional assay (Gi/o-mediated cAMP inhibition); assay type: cell-based
T1 construct: expressed in transfected cells; host or cells: HEKT cells (GloSensor cAMP assay)
T1 sequence (P08908 1-422): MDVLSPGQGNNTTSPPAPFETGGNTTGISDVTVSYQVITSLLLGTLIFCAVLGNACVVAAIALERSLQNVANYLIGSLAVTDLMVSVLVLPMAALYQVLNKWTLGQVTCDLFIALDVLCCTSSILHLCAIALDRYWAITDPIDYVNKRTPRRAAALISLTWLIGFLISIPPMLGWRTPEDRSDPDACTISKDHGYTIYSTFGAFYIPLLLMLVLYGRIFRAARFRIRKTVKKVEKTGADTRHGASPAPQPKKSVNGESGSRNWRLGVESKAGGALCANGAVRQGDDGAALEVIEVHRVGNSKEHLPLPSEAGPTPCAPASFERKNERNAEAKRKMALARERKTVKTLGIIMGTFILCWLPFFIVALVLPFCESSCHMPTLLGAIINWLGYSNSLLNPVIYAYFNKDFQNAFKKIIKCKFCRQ
Protocol: (§1) Serotonin and Opioid Receptor Functional Assays. Functional assay screens at 5-HT and opioid receptors were performed in parallel using the same compound dilutions and 384-well format high-throughput assay platforms. Assays assessed activity at all human isoforms of the receptors, except where noted for the mouse 5-HT2A receptor. Receptor constructs in pcDNA vectors were generated from the Presto-Tango GPCR library with minor modifications. All compounds were serially diluted in drug buffer (HBSS, 20 mM HEPES, pH 7.4 supplemented with 0.1% bovine serum albumin and 0.01% ascorbic acid) and dispensed into 384-well assay plates using a FLIPR^TETRA (Molecular Devices). Every plate included a positive control such as 5-HT (for all 5-HT receptors), DADLE (DOR), salvinorin A (KOR), and DAMGO (MOR). For measurements of 5-HT2A, 5-HT2B, and 5-HT2C Gq-mediated calcium flux function, HEK Flp-In 293 T-Rex stable cell lines (Invitrogen) were loaded with Fluo-4 dye for one hour, stimulated with compounds and read for baseline (0-10 seconds) and peak fold-over-basal fluorescence (5 minutes) at 25° C. on the FLIPR^TETRA. For measurement of 5-HT6 and 5-HT7a functional assays, Gs-mediated cAMP accumulation was detected using the split-luciferase GloSensor assay in HEKT cells measuring luminescence on a Microbeta Trilux (Perkin Elmer) with a 15 min drug incubation at 25° C. […]

5-HT2C = biological target: T2, 5-HT2C (Homo sapiens, UniProt P28335); assay: 5-HT2C Gq-mediated calcium flux functional assay; assay type: cell-based
T2 sequence (P28335 33-458): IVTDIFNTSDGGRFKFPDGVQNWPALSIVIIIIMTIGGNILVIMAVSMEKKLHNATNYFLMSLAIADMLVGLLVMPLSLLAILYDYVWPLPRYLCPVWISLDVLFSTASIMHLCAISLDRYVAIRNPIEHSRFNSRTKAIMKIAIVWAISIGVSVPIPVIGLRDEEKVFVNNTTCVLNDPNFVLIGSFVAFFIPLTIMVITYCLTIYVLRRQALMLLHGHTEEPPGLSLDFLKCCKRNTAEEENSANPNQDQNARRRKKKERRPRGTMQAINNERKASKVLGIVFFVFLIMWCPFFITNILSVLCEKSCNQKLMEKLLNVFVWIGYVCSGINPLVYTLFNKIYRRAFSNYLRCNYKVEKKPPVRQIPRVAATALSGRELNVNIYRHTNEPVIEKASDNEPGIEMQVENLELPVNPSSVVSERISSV
Protocol: as §1

human 5-HT2A receptors = human 5-HT2A receptors (Homo sapiens, UniProt P28223); assay: 5-HT2A Gq-mediated calcium flux functional assay (human); assay type: cell-based
Chain of human 5-HT2A receptors (P28223 whole entry): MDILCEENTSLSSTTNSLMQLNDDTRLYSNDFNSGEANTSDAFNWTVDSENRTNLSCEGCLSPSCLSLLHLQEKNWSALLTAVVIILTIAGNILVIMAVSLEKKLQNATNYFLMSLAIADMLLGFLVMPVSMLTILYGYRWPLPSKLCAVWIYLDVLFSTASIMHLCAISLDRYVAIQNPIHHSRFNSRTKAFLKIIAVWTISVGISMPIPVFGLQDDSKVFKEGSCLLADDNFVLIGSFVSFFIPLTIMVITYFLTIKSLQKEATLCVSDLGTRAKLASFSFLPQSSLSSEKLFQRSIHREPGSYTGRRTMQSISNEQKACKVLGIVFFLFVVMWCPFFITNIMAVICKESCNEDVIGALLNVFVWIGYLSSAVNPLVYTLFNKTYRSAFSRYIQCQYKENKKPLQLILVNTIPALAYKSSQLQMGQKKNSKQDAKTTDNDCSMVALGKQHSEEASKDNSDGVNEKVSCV
Protocol: as §1

[2] = tested on: rat embryonic cortical neurons; assay: Dendritogenesis (Sholl analysis) in cultured cortical neurons; assay type: cell-based; details: 1 h treatment followed by 71 h growth; compared to vehicle (VEH)
Protocol: Embryonic rat cortical neurons were treated for a short period of time (1 h) followed by a suitable growth period (71 h) to measure the psychoplastogenic effects of the compounds described herein. […] Therefore, the effects of ibogalogs 8-17 on dendritic growth was assessed.
Dendritogenesis Experiments. For the dendritogenesis experiments conducted using cultured cortical neurons, timed pregnant Sprague Dawley rats were obtained from Charles River Laboratories (Wilmington, MA). Full culturing, staining, and analysis details were performed as previously described. (Dunlap, L. et al., 2019)

larval zebrafish [3] = assay: Heart rate and arrhythmia in immobilized larval zebrafish
zebrafish = assay: Zebrafish developmental toxicity assay; assay type: in vivo; details: 100 μM; 2 and 5 dpf
[4] = Solubility in 0.9% saline; details: saline or isotonic
[5] = tested on: opioid receptors (MOR, KOR, DOR); assay: Opioid receptor functional assays (Gi/o-mediated cAMP inhibition); assay type: cell-based, human
Protocol: as §1

mouse 5-HT2A receptors = mouse 5-HT2A receptors (Mus musculus, UniProt P35363); assay: 5-HT2A Gq-mediated calcium flux functional assay (mouse); assay type: cell-based
Chain of mouse 5-HT2A receptors (P35363 whole entry): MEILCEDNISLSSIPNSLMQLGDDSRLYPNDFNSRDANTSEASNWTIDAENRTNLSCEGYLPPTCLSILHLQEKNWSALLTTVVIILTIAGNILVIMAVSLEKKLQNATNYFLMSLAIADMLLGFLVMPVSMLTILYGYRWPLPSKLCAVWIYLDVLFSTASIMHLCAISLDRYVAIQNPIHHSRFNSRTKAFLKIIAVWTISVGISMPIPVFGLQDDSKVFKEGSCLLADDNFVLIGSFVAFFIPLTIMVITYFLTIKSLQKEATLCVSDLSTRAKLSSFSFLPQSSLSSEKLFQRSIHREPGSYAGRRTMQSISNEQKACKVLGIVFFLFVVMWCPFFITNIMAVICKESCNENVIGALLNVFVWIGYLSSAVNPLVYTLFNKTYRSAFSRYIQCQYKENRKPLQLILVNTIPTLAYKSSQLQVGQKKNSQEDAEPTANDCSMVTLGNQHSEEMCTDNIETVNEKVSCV
Protocol: as §1

[6] = biological target: T3, hERG channels expressed in HEK293 cells (Homo sapiens, UniProt Q12809); assay type: cell-based; details: relative to ibogaine
T3 construct: expressed in transfected cells
T3 sequence (Q12809 whole entry): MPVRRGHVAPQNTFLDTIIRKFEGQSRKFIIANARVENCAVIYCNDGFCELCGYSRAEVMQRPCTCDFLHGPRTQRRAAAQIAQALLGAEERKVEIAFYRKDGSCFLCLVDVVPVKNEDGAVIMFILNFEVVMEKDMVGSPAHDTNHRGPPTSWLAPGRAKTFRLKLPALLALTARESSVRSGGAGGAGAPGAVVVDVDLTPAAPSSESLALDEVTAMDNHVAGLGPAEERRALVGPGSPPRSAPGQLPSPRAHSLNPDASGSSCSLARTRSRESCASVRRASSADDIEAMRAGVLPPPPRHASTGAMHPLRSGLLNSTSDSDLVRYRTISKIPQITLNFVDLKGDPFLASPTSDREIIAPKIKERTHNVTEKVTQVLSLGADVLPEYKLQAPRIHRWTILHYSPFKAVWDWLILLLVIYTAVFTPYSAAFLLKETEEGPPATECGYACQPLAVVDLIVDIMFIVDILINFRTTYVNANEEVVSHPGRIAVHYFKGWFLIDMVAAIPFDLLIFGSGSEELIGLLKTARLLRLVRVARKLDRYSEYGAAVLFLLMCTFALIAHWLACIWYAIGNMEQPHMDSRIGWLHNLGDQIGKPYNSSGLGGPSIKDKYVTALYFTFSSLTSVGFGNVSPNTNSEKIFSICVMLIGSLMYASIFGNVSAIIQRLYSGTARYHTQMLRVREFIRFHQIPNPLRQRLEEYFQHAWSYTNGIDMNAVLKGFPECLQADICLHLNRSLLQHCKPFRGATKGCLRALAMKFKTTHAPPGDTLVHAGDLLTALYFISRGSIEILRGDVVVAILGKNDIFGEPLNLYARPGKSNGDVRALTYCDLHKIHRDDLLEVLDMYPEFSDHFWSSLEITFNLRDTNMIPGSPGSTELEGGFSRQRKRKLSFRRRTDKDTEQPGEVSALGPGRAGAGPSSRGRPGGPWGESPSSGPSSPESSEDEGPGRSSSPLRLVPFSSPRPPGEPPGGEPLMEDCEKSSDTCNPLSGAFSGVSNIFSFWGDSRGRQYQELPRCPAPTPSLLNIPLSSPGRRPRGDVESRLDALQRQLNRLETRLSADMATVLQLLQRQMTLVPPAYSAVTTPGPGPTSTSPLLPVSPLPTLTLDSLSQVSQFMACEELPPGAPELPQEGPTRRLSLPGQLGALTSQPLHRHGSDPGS
Protocol: hERG Inhibition Studies. All experiments were conducted manually using an EPC-10 amplifier (HEKA, Lambrecht/Pfalz, Germany) at room temperature in the whole-cell mode of the patch-clamp technique. HEK-293 cells stably expressing hKv11.1 (hERG) under G418 selection were a generous gift from Craig January (University of Wisconsin, Madison). Cells were cultured in DMEM containing 10% fetal bovine serum, 2 mM glutamine, 1 mM sodium pyruvate, 100 U/mL penicillin, 100 μg/mL streptomycin, and […]. Before experiments, cells were cultured to 60-80% confluency and lifted using TrypLE and plated onto poly-L-lysine-coated coverslips. Patch pipettes were pulled from soda lime glass (micro-hematocrit tubes) and had resistances of 2-4 MO. For the external solution, normal sodium Ringer was used (160 mM NaCl, 4.5 mM KCl, 2 mM CaCl2, 1 mM MgCl2, 10 mM HEPES, pH 7.4 and 290-310 mOsm). The internal solution used was potassium fluoride with ATP (160 mM KF, 2 mM MgCl2, 10 mM EGTA, 10 mM HEPES, 4 mM NaATP, pH=7.2 and 300-320 mOsm). A 2-step pulse (applied every 10 sec) from −80 mV first to 40 mV for 2 sec and then to −60 mV for 4 sec, was used to elicit hERG currents. The percent reduction of tail current amplitude by the drugs was determined and data are shown as mean+/−SD. For all experiments, solutions of the drugs were prepared fresh from 10 mM stock solutions in DMSO. […]

5-HT2B receptors = 5-HT2B receptors (Homo sapiens, UniProt P41595); assay: 5-HT2B Gq-mediated calcium flux functional assay; assay type: cell-based
Chain of 5-HT2B receptors (P41595 whole entry, canonical isoform): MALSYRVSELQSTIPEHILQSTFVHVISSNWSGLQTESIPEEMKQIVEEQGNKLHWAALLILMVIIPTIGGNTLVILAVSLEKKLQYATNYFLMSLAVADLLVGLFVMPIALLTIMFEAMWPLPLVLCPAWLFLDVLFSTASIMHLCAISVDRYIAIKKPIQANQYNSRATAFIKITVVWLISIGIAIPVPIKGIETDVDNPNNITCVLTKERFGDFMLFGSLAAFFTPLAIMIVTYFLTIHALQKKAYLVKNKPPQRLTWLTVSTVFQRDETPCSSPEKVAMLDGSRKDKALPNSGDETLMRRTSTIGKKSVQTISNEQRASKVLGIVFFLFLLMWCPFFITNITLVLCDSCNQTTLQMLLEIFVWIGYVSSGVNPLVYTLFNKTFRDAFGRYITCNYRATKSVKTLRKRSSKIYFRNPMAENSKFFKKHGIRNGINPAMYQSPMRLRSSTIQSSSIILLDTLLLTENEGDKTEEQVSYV
Protocol: Serotonin and Opioid Receptor Functional Assays. Functional assay screens at 5-HT and opioid receptors were performed in parallel using the same compound dilutions and 384-well format high-throughput assay platforms. Assays assessed activity at all human isoforms of the receptors, except where noted for the mouse 5-HT2A receptor. Receptor constructs in pcDNA vectors were generated from the Presto-Tango GPCR library with minor modifications. All compounds were serially diluted in drug buffer (HBSS, 20 mM HEPES, pH 7.4 supplemented with 0.1% bovine serum albumin and 0.01% ascorbic acid) and dispensed into 384-well assay plates using a FLIPR^TETRA (Molecular Devices). Every plate included a positive control such as 5-HT (for all 5-HT receptors), DADLE (DOR), salvinorin A (KOR), and DAMGO (MOR). For measurements of 5-HT2A, 5-HT2B, and 5-HT2C Gq-mediated calcium flux function, HEK Flp-In 293 T-Rex stable cell lines (Invitrogen) were loaded with Fluo-4 dye for one hour, stimulated with compounds and read for baseline (0-10 seconds) and peak fold-over-basal fluorescence (5 minutes) at 25° C. on the FLIPR^TETRA. For measurement of 5-HT6 and 5-HT7a functional assays, Gs-mediated cAMP accumulation was detected using the split-luciferase GloSensor assay in HEKT cells measuring luminescence on a Microbeta Trilux (Perkin Elmer) with a 15 min drug incubation at 25° C. For 5-HT1A, 5-HT1B, 5-HT1F, MOR, KOR, and DOR functional assays, Gi/o-mediated cAMP inhibition was measured using the split-luciferase GloSensor assay in HEKT cells, conducted similarly as above, but in combination with either 0.3 μM isoproterenol (5-HT1A, 5-HT1B, 5-HT1F) or 1 μM forskolin (MOR, KOR, and DOR) to stimulate endogenous cAMP accumulation. For measurement of 5-HT1D, 5-HT1E, 5-HT4, and 5-HT5A functional assays, β-arrestin2 recruitment was measured by the Tango assay utilizing HTLA cells expressing TEV fused-β-arrestin2, as described previously with minor modifications. […]

C57BL/6J mice = assay: Head-twitch response (HTR) assay; details: intraperitoneal; fumarate salts; 5-MeO-DMT 10 mg/kg as positive control

COc1ccc2[nH]c3c(c2c1)CCN(C)CC3 [IBG]
behavioral phenotype at highest concentration versus lethal control (larval zebrafish [1]; 200 μM): did not produce this phenotype | behavioral phenotype with increasing concentration versus vehicle and lethal control (eugenol, 100 μM) (larval zebrafish [1]; 1 h treatment, concentration-response): do not produce movement responses in larval zebrafish similar to a lethal concentration of eugenol | machine learning classification of movement responses (larval zebrafish [1]; highest concentrations (200 μM)): more similar to vehicle controls than to ibogaine, noribogaine, or lethal controls | 5-HT1A agonist activity compared to 5-MeO-DMT (5-HT1A): weaker 5-HT1A and 5-HT2C agonist activity | 5-HT2C agonist activity compared to 5-MeO-DMT (5-HT2C): weaker 5-HT1A and 5-HT2C agonist activity | agonist activity at human 5-HT2A receptors (human 5-HT2A receptors): potent agonist activity | psychoplastogenic effect on dendritic growth (Sholl analysis) [2]: performed comparably to ibogaine | heart rate (bradycardia) (larval zebrafish [3]): Neither IBG nor TBG induced these undesirable phenotypes; also recorded: do not induce bradycardia | likelihood of arrhythmias (ratio of atrium to ventricle BPM) (larval zebrafish [3]): Neither IBG nor TBG induced these undesirable phenotypes | malformations, mortality, non-viable fish (zebrafish): significantly fewer non-viable fish than ibogaine or noribogaine treatments | solubility [4]: ≥ 40 mg/mL | opioid agonist activity [5]: weak or no opioid agonist activity | agonist activity at mouse 5-HT2A receptors (mouse 5-HT2A receptors): potent agonist activity | fold less potent than ibogaine at hERG [6]: approximately 10 fold | activity mode at 5-HT2B receptors (5-HT2B receptors): antagonists | hallucinogenic potential (head-twitch response) (C57BL/6J mice): significantly reduced hallucinogenic potential
